Measured values: article PMC5606850, “Acidic C-terminal domains autoregulate the RNA chaperone Hfq” (eLife, 2017)
“Also recorded” adds a separate entry of the source.

Assays:
[1] = test system: RNA molecular beacon and Target RNA; assay: RNA annealing kinetics (molecular beacon and Target RNAs), stopped-flow fluorescence; assay type: biochemical; conditions: 30 °C
Description: Figure 2. CTD and RNA occupy the same rim binding site. […] The CTD linker is shown in purple, the acidic tip in red and the N-terminal FITC as a yellow star. Hfq core is shown in cyan, with basic rim patches in dark blue. […] (C) Reaction scheme for annealing an RNA molecular beacon to a target RNA (open bar) ([Hopkins et al., 2011]; [Panja et al., 2015]). (D) Progress curves for annealing 50 nM molecular beacon and 100 nM Target by 50 nM Hfq65 hexamer at 30°C, measured by stopped-flow fluorescence. See Figure 2—figure supplement 3 for further data. (E) Contribution of core residues to CTD binding. Interaction energy (Expected Energetic Contribution; EEC) in silico for a core residue in the Rosetta models (solid symbols and solid line; adjusted R^2 = 0.77) or the average annealing rates for Target and Target-A18 relative to Hfq65 (open symbols and dashed line; adjusted R^2 = 0.94) versus experimental CTD binding energy (∆∆G°) for each Hfq65 variant. The binding energy, ∆∆G° = –RTln(Kd^MUT/Kd), reflects the perturbation to CTD binding by a mutation in Hfq65. The interaction energy in silico or EEC is defined as the average energy of a tail–core interaction multiplied by the average number of tail–core interactions per model (Figure 1B, top and Equation 3). The relative annealing rate for Hfq65 variants, krel = kobs^MUT/kobs^WT, is <1 if the mutated residue is important for RNA annealing. Figure 2—figure supplement 1. SDS-PAGE of purified Hfq variants. […] Annealing of 100 nM Target RNA to 50 nM beacon RNA by Hfq65 and Hfq65 variants was measured by stopped flow fluorescence at 30°C in 1 × TNK buffer. […] The change in fluorescence emission intensity was normalized to the maximum fluorescence within an experiment. […]
To determine how much core residues that bind the CTD contribute to Hfq’s RNA annealing activity, we compared the effect of rim mutations on the rate of base pairing between an RNA molecular beacon and the 16 nt Target RNA by stopped-flow fluorescence spectroscopy (Figure 2C) ([Hopkins et al., 2011]). […]

1000 bp DNA / pUC19 DNA = assay: Hfq·DNA aggregation: pelleting and protease assays; assay type: biochemical; conditions: 3.5 µM Hfq hexamer, 15 nM 1000 bp DNA (pelleting) or 6 nM pUC19 (protease assay), 25 °C
Description: Figure 5. CTD and RNAs inhibit DNA binding to Hfq by obstructing the basic rim patch. (A, B) Agarose gel electrophoretic mobility shift assays of 0–3.3 μM hexamer Hfq102, Hfq102-R16A, Hfq65 or Hfq65-R16A binding to 6 nM linear pUC19 DNA ([…]) at 25°C, stained with SYBR Gold. Hfq65 forms large aggregates that fail to enter the gel (Figure 5—figure supplement 1). (C, D) Line densitometry of DNA migration in (A, B). Free pUC19 (no Hfq) is shown in light grey. Samples with increasing Hfq concentration are shown in darker shades of grey. (E, F) RNA competition. Complexes of 0.5 μM Hfq102 hexamer and 6 nM linear pUC19 (black) were challenged by 0–2 μM RNA or DNA competitor (darker shades of red). pUC19 control in the absence of Hfq is shown in light grey. Icons indicate the binding surface for each competitor. See Figure 5—figure supplement 2 for gel images. Figure 5—figure supplement 1. Hfq CTD prevents aggregation with DNA. (A) Protease assay. 3.5 µM Hfq hexamer incubated with 6 nM linear (L) plus relaxed circular (N) pUC19 DNA at 25°C, for 30 min, in 50 mM Tris-HCl pH 7.5 and 10 mM CaCl2. The samples were divided in two. […] Digestion of Hfq65 and Hfq65-R16A with Proteinase K liberates DNA from Hfq•DNA aggregates, allowing it to be detected (lanes 9 and 10). […] The small proportion of Hfq65·DNA complexes remaining in the supernatant were only detected in the gel after treatment with salt. […]

Substance	activity in single-turnover annealing assays ([1]; 50 nM beacon, 100 nM Target RNA, 0–200 nM Hfq hexamer)	Hfq·DNA aggregation (1000 bp DNA / pUC19 DNA)	observed annealing rate of Hfq65 rim mutants ([1]; 50 nM molecular beacon, 100 nM Target, Hfq65 variants, TNK buffer)
Hfq65: truncated E. coli Hfq variant lacking the CTD	highly active	Nearly all of the Hfq65·DNA complexes were found in the pellet fraction; also recorded: form insoluble aggregates with DNA which do not enter the gel	
Hfq65-R16A		more evenly distributed between pellet and supernatant fractions; also recorded: form insoluble aggregates with DNA which do not enter the gel	most diminished
